≈ marks a conversion by molar mass, not a printed value. Read-outs that look alike come from different tables or passages of the source.
Assays:
HEK-293 cells [1] = assay: Toxicity (Table 2; cytotoxicity in the compound screen)
Solubility (Table 2) = conditions: DMSO, organic solvent or mixture
[2] = tested on: adult rat ventricular myocytes (ARVMs); assay: Cell shortening/re-lengthening and calcium transient of ARVMs (IonOptix); assay type: cell-based; conditions: compared to DMSO control; 10 μM
Method: Calcium-tolerant adult rat ventricular myocytes (ARVMs) were obtained from hearts of male Sprague-Dawley rats (250 to 300 g). The heart was excised and perfused with a standard enzymatic technique. ARVMs were plated on multi-chambered plates or culture dishes, pre-coated with laminin 2 μg/cm^2, at a density of 10^5 cells/cm^2 in DMEM without L-glutamine supplemented with 10 mmol/l HEPES, 3.7 mg/ml NaHCO3, 1 mg/ml glucose, 0.11 mg/ml sodium pyruvate, 2 mg/ml bovine serum albumin, 2 mmol/1 L-camitine, 5 mmol/1 creatine, 5 mmol/1 taurine, 1% penicillin-streptomycin, and 1% gentamycin. Following isolation, cells were allowed to settle for 1 hour. Cultures were incubated at 37° C., in an atmosphere of 5% CO2-95% air. Fresh medium was added gently as medium was being drawn off until the cultures had been thoroughly washed. Only quiescent, rod-shape cardiac myocytes were selected for IonOptix experiments.
(§1) Each compound was added at 10 μM. DMSO was used as a control. After 24 hours at 37° C., SERCA2a SUMOylation and functional analysis were determined.
Mechanical properties of ARVMs were assessed using an IonOptix MyoCam® system (IonOptix, Milton, Mass.). In brief, cells were placed in a Warner chamber mounted on the stage of an inverted microscope (Olympus, IX-70) and superfused (1 ml/min at 30° C.) with a buffer containing 131 mM NaCl, 4 mM KCl, 1 mM CaCh, 1 mM MgCh, 10 mM glucose, and 10 mM HEPES, pH 7.4. ARVMs were field stimulated with suprathreshold voltage and at a frequency of 0.5 Hz. […] SoftEdge software (IonOptix) was used to capture changes in cell length during shortening and re-lengthening.
ARVMs were placed in a chamber on an Olympus IX-70 inverted microscope and imaged through a Fluor 40× oil objective. ARVMs were exposed to light emitted by a 75 W lamp and passed through either a 360 or a 380 nm filter (bandwidths were ±15 nm), while being stimulated to contract at 0.5 Hz. Fluorescence emissions were detected between 480 and 520 nm by a photomultiplier tube after first illuminating cells at 360 nm for 0.5 s then at 380 nm for the duration of the recording protocol (333 Hz sampling rate). The 360 nm excitation scan was repeated at the end of the protocol and qualitative changes in intracellular Ca^2+ concentration ((Ca^2+]i) were inferred from the ratio of the fluorescence intensity at two wavelengths.
The effects of the Example compound was examined on isolated rat cardiomyocytes shortening and relaxation parameters. […] Effects of Example 1 on mechanical properties of the ARVMs were assessed using a video-based edge detection system (IonOptix). The time constant of the increase of force during the stretch decreased (tau), percentage of peak shortening (PS), maximal rate of relaxation and contraction were analyzed at 24 hrs postincubation of the compounds in culture media (N=10 ARVMs). The mechanical data were analyzed with student's t-test (FIG. 2A, P<0.05 compared to the DMSO treated cells). SERCA2a SUMOylation profiling was analyzed in a same set of ARVMs (FIG. 2B, WCL, whole cell lysates; S-SERCA2a, SUMOylated SERCA2a).

YFP-SUMO1 = YFP-SUMO1 accumulation (cell image) in HEK-293 cells expressing YFP-SUMO1 and pcDNA3.0-SERCA2a; assay type: cell-based; conditions: increase vs. DMSO; for fold induction at 10 µM: Homo sapiens, HEK293, 24 hours
Source text: (§2) The following antibodies were used for immunoblotting and immunoprecipitation (IP): polyclonal anti-SERCA2a (21th century Biochem Inc.), monoclonal anti-GAPDH (Sigma-Aldrich, catalog no. G8795), monoclonal anti-SUMO 1 (Cell Signaling Technology Inc., catalog no. 4930), anti-mouse horseradish peroxidase (HRP) (Pierce Biotechnology Inc., catalog no. 32430), and anti-rabbit HRP (Pierce Biotechnology Inc., catalog no. 32460). YFP-tagged SUMO1, pcDNA3.0-SERCA2a, and HA-tagged Ubc9 plasmids were used for the transfection. The plasmid DNA was amplified in the Escherichia coli strain DH5a and extracted by using a commercial purification kit (Qiagen, catalog no. 12263). Purified plasmid was resuspended in sterile TE buffer (10 mM Tris-HCl and 1 mM EDTA, pH 7.6). Only the preparation highest purity (A260/A280>1.8) was used for transfection. 1 μg of each plasmid was used for transfection. HEK-293 cells (American Type Culture Collection, catalog no. CRL-1873) were grown at 37° C. and under a 5% CO2 humidified atmosphere in Dulbecco's modified Eagle's medium (DMEM, Cellgro, catalog no. 10-0 13-CM) containing 10% fetal bovine serum (SAFC Bioscience, catalog no. 12107) and 100 i.u of penicillin/ml and 100 μg of streptomycin/ml. HEK-293 cells were seeded at a density of 3-5×10^5 cells per 60 mm culture dish in DMEM. The cells were transiently transfected using Lipofectamine 2000 (Invitrogen, catalog no. 11668) with indicated expression plasmids. After 24 hours, the cells were treated with either small molecules or dimethyl sulfoxide (DMSO, Sigma-Aldrich, catalog no. D2650).
as §1
Cellular permeability and potential activity of the compounds were examined by tracking of the YFP-SUMO1. HEK-293 cells expressing YFP-SUMOI and pcDNA3.0-SERCA2a were incubated with either 10 μM DMSO or 10 μM small molecules for 24 hours at 37° C. Fluorescent signals were monitored by fluorescence microscopy. HA-tagged Ubc9 expressing cells were served as a positive control.
The ability of the Example compound to SUMOylate SERCA2a was examined using an in vitro system in HEK 293 cells where both SERCA2a and SUMO 1 are expressed. The cellular permeability and potential activity of the Example compounds was examined by tracking of the YFP-SUM01. HEK-293 cells expressing YFP-SUM01 and pcDNA3.0-SERCA2a were treated with either 10 μM DMSO or 10 μM indicated Example 1 for 24 hrs. Fluorescent signals were monitored by fluorescence microscopy. HA-Ubc9 expressing cells were served as a positive control. The SERCA2a SUMOylation profiling was then analyzed by using the same cells (FIG. 1B, WCL, whole cell lysates; S-SERCA2a, SUMOylated SERCA2a).

SERCA2a = SERCA2a SUMOylation assay in HEK-293 cells (immunoprecipitation/immunoblotting); assay type: cell-based; conditions: compared with DMSO control; 10 μM
Source text: as §2, §1
Equal amounts of protein from either small molecule treated or DMSO treated cells or immunoprecipitates were resolved by 7.5% SDS-PAGE and transferred to nitrocellulose membranes (Bio-Rad, catalog no. 162-0112). The membranes were blocked for 1 hour at room temperature with 5% non-fat milk (Cell Signaling Technology Inc., catalog no. 9999) in TBST (10 mM Tris-HCl, 150 mM NaCl, and 0.05% tween-20, pH 8.0). The blots were incubated with specific primary antibodies at 4° C. for overnight. The blots were then washed five times for 10 minutes each with TBST and incubated for 1 hour with HRP-conjugated secondary antibodies in TBST with 5% non-fat milk. After five times TBST washes, the protein bands were visualized with enhanced chemiluminescence (Pierce Biotechnology Inc., catalog no. 32132) and exposed to x-ray film (Denville Scientific Inc., catalog no. E3012). GAPDH expression provided an internal control.
Post-transfection (48 hours), the HEK-293 cells were rinsed twice with phosphate-buffered saline (PBS, Cellgro, catalog no. 21-040-CM) and lysed in 1% Nonidet P-40 lysis buffer (Boston Bioproducts, catalog no. BP-119) with 10 mM N-ethylmaleimide (NEM, Sigma-Aldrich, catalog no. N3876) and […] inhibitor cocktail (Complete Mini Tablet, Roche Applied Science, catalog no. 11836153001). 2 mg of protein were mixed with the anti-SERCA2a antibodies for overnight at 4° C. in lysis buffer. Pre-washed protein A-Separose beads (Pierce Biotechnology Inc., catalog no. 20333) was added to each sample and incubated 1 hour at 4° C. with gentle rocking. Immunocomplexes were washed with lysis buffer three times and precipitated by centrifugation at 12000×g for 10 seconds. The immunocomplexes were resuspended in SDS sample buffer and subjected to immunoblotting. Controls for the immunoprecipitations were performed using an anti-rabbit IgG equal to that of the primary precipitating antibody. Ten percent of whole cell lysates used in the immunoprecipitation was loaded for subsequent immunoblotting.
The ability of the Example compound to SUMOylate SERCA2a was examined using an in vitro system in HEK 293 cells where both SERCA2a and SUMO 1 are expressed. […]

HEK-293 cells [3] = tested on: HEK-293 cells

Row | Compound | Toxicity (HEK-293 cells [1]) | solubility (Solubility (Table 2)) | Cardiac Contraction: Peak shortening [2] | fold induction at 10 µM (YFP-SUMO1) | SERCA2a SUMOylation (SERCA2a) | Toxicity (HEK-293 cells [3]) | YFP accumulation (YFP-SUMO1; 10 μM, 24 hours)
1 | Fc1ccc(-c2nnc(Nc3nc4c(F)cccc4s3)o2)cc1 [Example 2, N-(4-fluorobenzo[d]thiazol-2-yl)-5-(4-fluorophenyl)-1,3,4-oxadiazol-2-amine] | Non-toxic | 10 mM (≈ 3300 µg/mL) | Peak shortening 2.2x compared to DMSO control | 2.93 | Increased 1.34x compared with DMSO control |  | 
2 | COc1cccc(-c2nnc(Nc3nc4c(F)cccc4s3)o2)c1 [Example 3, N-(4-fluorobenzo[d]thiazol-2-yl)-5-(3-methoxyphenyl)-1,3,4-oxadiazol-2-amine] | Non-toxic | 10 mM (≈ 3420 µg/mL) | Peak shortening 2.5x compared to DMSO control | 2.49 | Increased 1.43x compared with DMSO control |  | 
3 | COc1ccc(-c2nnc(Nc3nc4c(F)cccc4s3)o2)cc1 [Example 4, N-(4-fluorobenzo[d]thiazol-2-yl)-5-(4-methoxyphenyl)-1,3,4-oxadiazol-2-amine] | Non-toxic | 10 mM (≈ 3420 µg/mL) | Peak shortening 4.3x compared to DMSO control | 2.34 | Increased 1.4x compared with DMSO control |  | 
4 | N-(6-fluorobenzo[d]thiazol-2-yl)-5-(4-methoxyphenyl)-1,3,4-oxadiazol-2-amine [Example 14] |  |  |  |  | Not statistically significant | > 50% | Active
